We go through 20 compounds from patent US9328106B2, “Cyclic ether pyrazol-4-yl-heterocyclyl-carboxamide compounds and methods of use” (Genentech, Inc., priority 2012, dated 2016).

Each structure is given as a SMILES string.

The assay deals with PIM1 (Homo sapiens (Human), UniProt P11309). As to the kind of experiment: biochemical. The class given is biochemical. Conditions: 20 pM PIM1, 1 μM FAM-peptide, 10 μM ATP, 90 minutes at room temperature; read-out: PIM1 LC3K (KI).
Chain of PIM1 (P11309 whole entry): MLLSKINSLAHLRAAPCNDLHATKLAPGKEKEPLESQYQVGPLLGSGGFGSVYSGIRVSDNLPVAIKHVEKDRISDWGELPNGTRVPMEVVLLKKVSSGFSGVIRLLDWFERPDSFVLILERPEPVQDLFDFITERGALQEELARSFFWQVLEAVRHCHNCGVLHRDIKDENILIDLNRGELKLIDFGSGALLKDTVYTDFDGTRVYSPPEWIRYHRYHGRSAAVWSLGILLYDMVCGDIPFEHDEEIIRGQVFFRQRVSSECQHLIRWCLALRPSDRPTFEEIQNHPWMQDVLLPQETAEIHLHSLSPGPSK
As a reminder, the Ki is a measure of affinity in units of concentration, obtained from inhibition or displacement. For the compound `C[C@@H]1C[C@H](N)CC[C@H](c2c(NC(=O)c3nc(-c4c(F)cccc4F)sc3N)cnn2C)O1` [Example 120, 5-amino-N-(5-((2R,5R,7R)-5-amino-7-methyloxepan-2-yl)-1-methyl-1H-pyrazol-4-yl)-2-(2,6-difluorophenyl)thiazole-4-carboxamide], the Ki came to 0.081 nM.

As to `Cn1ncc(NC(=O)c2nc(-c3cccc(F)c3Cl)sc2N)c1[C@@H]1CC[C@@H](N)[C@H](F)CO1` [Example 337, 5-amino-N-(5-((2S,5R,6S)-5-amino-6-fluorooxepan-2-yl)-1-methyl-1H-pyrazol-4-yl)-2-(2-chloro-3-fluorophenyl)thiazole-4-carboxamide], the Ki was 0.015 nM.

On to `COc1ccc(C(F)F)c(F)c1-c1nc(C(=O)Nc2cnn(C)c2[C@@H]2CC[C@@H](N)[C@H](F)CO2)cs1` [Example 378, N-[5-[(2S,5R,6S)-5-amino-6-fluoro-oxepan-2-yl]-1-methyl-pyrazol-4-yl]-2-[3-(difluoromethyl)-2-fluoro-6-methoxy-phenyl]thiazole-4-carboxamide], for which the Ki turned out to be 1.48 nM.

On to `Cn1ncc(NC(=O)c2csc(-c3c(F)cc(C4(O)CCC4)cc3F)n2)c1[C@@H]1CC[C@@H](N)[C@H](F)CO1` [Example 295, N-(5-((2S,5R,6S)-5-amino-6-fluorooxepan-2-yl)-1-methyl-1H-pyrazol-4-yl)-2-(2,6-difluoro-4-(1-hydroxycyclobutyl)phenyl)thiazole-4-carboxamide], for which the Ki is 0.027 nM.

Take `C[C@H]1O[C@@H](c2c(NC(=O)c3nc(-c4c(F)cccc4F)sc3N)cnn2C)CC(F)(F)[C@@]1(C)N` [Example 184, 5-Amino-N-(5-((2R,5S,6R)-5-amino-4,4-difluoro-5,6-dimethyltetrahydro-2H-pyran-2-yl)-1-methyl-1H-pyrazol-4-yl)-2-(2,6-difluorophenyl)thiazole-4-carboxamide]: the Ki is 0.484 nM.

As to `CO[C@H]1CO[C@H](c2c(NC(=O)c3nc(-c4c(C)cccc4F)sc3N)cnn2C)CC[C@H]1N` [Example 269, 5-amino-N-(5-((2S,5R,6R)-5-amino-6-methoxyoxepan-2-yl)-1-methyl-1H-pyrazol-4-yl)-2-(2-fluoro-6-methylphenyl)thiazole-4-carboxamide], the Ki was found to be 0.052 nM.

Turning to `Cn1ncc(NC(=O)c2nc(-c3c(F)cccc3F)sc2N)c1C1CC[C@@H](O)[C@@H](O)CO1` (stereo partly drawn) [Example 111, 5-amino-2-(2,6-difluorophenyl)-N-(5-((5R,6S)-5,6-dihydroxyoxepan-2-yl)-1-methyl-1H-pyrazol-4-yl)thiazole-4-carboxamide], the Ki was determined as 0.425 nM.

Consider `Cc1cccc(F)c1-c1nc(C(=O)Nc2cnn(C)c2[C@@H]2CC[C@@H](N)[C@@H](F)CO2)c(N)s1` [Example 273, 5-amino-N-(5-((2S,5R,6R)-5-amino-6-fluorooxepan-2-yl)-1-methyl-1H-pyrazol-4-yl)-2-(2-fluoro-6-methylphenyl)thiazole-4-carboxamide], for which the Ki came to 0.007 nM.

With `CO[C@H]1CO[C@H](c2c(NC(=O)c3csc(-c4c(F)ccc(F)c4F)n3)cnn2C)CC[C@H]1N` [Example 258, N-(5-((2S,5R,6R)-5-amino-6-methoxyoxepan-2-yl)-1-methyl-1H-pyrazol-4-yl)-2-(2,3,6-trifluorophenyl)thiazole-4-carboxamide], the Ki was 0.145 nM.

With `COc1cc(F)c(-c2nc(C(=O)Nc3cnn(C)c3[C@@H]3CC[C@@H](N)[C@H](F)CO3)ccc2F)c(F)c1` [Example 201, N-(5-((2S,5R,6S)-5-amino-6-fluorooxepan-2-yl)-1-methyl-1H-pyrazol-4-yl)-6-(2,6-difluoro-4-methoxyphenyl)-5-fluoropicolinamide], the Ki is 0.019 nM.

Take `Cc1c(-c2nc(C(=O)Nc3cnn(C)c3[C@@H]3CC[C@@H](N)[C@H](F)CO3)c(N)s2)cnn1C` [Example 257, 5-amino-N-(5-((2S,5R,6S)-5-amino-6-fluorooxepan-2-yl)-1-methyl-1H-pyrazol-4-yl)-2-(1,5-dimethyl-1H-pyrazol-4-yl)thiazole-4-carboxamide]: the Ki worked out at 0.025 nM.

As to `Cn1ncc(NC(=O)c2nc(-c3c(F)cccc3F)sc2N)c1[C@H]1C[C@@H](O)CCO1` [Example 149, 5-amino-2-(2,6-difluorophenyl)-N-(5-((2R,4S)-4-hydroxytetrahydro-2H-pyran-2-yl)-1-methyl-1H-pyrazol-4-yl)thiazole-4-carboxamide], the Ki was determined as 0.174 nM.

For `Cn1ncc(NC(=O)c2ccc(F)c(-c3c(F)cc(Cl)cc3F)n2)c1[C@@H]1CC[C@@H](N)[C@H](F)CO1` [Example 375, N-(5-((2S,5R,6S)-5-amino-6-fluorooxepan-2-yl)-1-methyl-1H-pyrazol-4-yl)-6-(4-chloro-2,6-difluorophenyl)-5-fluoropicolinamide], the Ki is 0.036 nM.

For the compound `Cn1ncc(NC(=O)c2csc(-c3cc(C4CC4)ccc3F)n2)c1[C@@H]1CC[C@@H](N)[C@H](F)CO1` [Example 310, N-(5-((2S,5R,6S)-5-amino-6-fluorooxepan-2-yl)-1-methyl-1H-pyrazol-4-yl)-2-(5-cyclopropyl-2-fluorophenyl)thiazole-4-carboxamide], the Ki came to 0.093 nM.

Take `Cn1ncc(NC(=O)c2csc(-c3cccc(F)c3Cl)n2)c1[C@@H]1CC[C@@H](N)[C@H](F)CO1` [Example 309, N-(5-((2S,5R,6S)-5-amino-6-fluorooxepan-2-yl)-1-methyl-1H-pyrazol-4-yl)-2-(2-chloro-3-fluorophenyl)thiazole-4-carboxamide]: the Ki came to 0.274 nM.

Turning to `Cn1ncc(NC(=O)c2csc(-c3cc(F)cc(F)c3F)n2)c1[C@@H]1CC[C@@H](N)[C@H](F)CO1` [Example 236, N-(5-((2S,5R,6S)-5-amino-6-fluorooxepan-2-yl)-1-methyl-1H-pyrazol-4-yl)-2-(2,3,5-trifluorophenyl)thiazole-4-carboxamide], the Ki was determined as 0.255 nM.

Take `C[C@@H](O)c1cc(F)c(-c2nc(C(=O)Nc3cnn(C)c3[C@@H]3CC[C@@H](N)[C@H](F)CO3)cs2)c(F)c1` [Example 304, N-(5-((2S,5R,6S)-5-amino-6-fluorooxepan-2-yl)-1-methyl-1H-pyrazol-4-yl)-2-(2,6-difluoro-4-((R)-1-hydroxyethyl)phenyl)thiazole-4-carboxamide]: the Ki was 0.014 nM.

Regarding `Cn1ncc(NC(=O)c2csc(-c3cnc4cccnc4c3)n2)c1[C@@H]1CC[C@@H](N)[C@H](F)CO1` [Example 399, N-[5-[(2S,5R,6S)-5-amino-6-fluoro-oxepan-2-yl]-1-methyl-pyrazol-4-yl]-2-(1,5-naphthyridin-3-yl)thiazole-4-carboxamide], the Ki was found to be 0.21 nM.

Consider `CO[C@H]1CO[C@H](c2c(NC(=O)c3nc(-c4cccc(F)c4F)sc3N)cnn2C)CC[C@H]1N` [Example 219, 5-amino-N-(5-((2S,5R,6R)-5-amino-6-methoxyoxepan-2-yl)-1-methyl-1H-pyrazol-4-yl)-2-(2,3-difluorophenyl)thiazole-4-carboxamide], for which the Ki is 0.05 nM.

For the compound `Cn1ncc(NC(=O)c2nc(-c3c(F)cccc3C(F)(F)F)sc2N)c1[C@@H]1CC[C@@H](N)[C@H](F)CO1` [Example 331, 5-amino-N-(5-((2S,5R,6S)-5-amino-6-fluorooxepan-2-yl)-1-methyl-1H-pyrazol-4-yl)-2-(2-fluoro-6-(trifluoromethyl)phenyl)thiazole-4-carboxamide], the Ki came out at 0.104 nM.
